Experimental data published in patent US7662832B2, “Pyrrolo[2,3-c]pyridine derivatives and processes for the preparation thereof” (priority 2004, dated 2010).
Where a name gives a salt, the structure may show the parent alone.

Each molecule was assayed against Proton Pump (H^+/K^+-ATPase) (Sus scrofa, UniProt P19156) (assay: Inhibitory effects on proton pump (H^+/K^+-ATPase) activity). Details: hog gastric vesicles; K^+ stimulated H^+/K^+-ATPase activity; 30 minutes at 37° C.
Format: biochemical

Chain of Proton Pump (H^+/K^+-ATPase) (P19156 2-1034 limits assumed): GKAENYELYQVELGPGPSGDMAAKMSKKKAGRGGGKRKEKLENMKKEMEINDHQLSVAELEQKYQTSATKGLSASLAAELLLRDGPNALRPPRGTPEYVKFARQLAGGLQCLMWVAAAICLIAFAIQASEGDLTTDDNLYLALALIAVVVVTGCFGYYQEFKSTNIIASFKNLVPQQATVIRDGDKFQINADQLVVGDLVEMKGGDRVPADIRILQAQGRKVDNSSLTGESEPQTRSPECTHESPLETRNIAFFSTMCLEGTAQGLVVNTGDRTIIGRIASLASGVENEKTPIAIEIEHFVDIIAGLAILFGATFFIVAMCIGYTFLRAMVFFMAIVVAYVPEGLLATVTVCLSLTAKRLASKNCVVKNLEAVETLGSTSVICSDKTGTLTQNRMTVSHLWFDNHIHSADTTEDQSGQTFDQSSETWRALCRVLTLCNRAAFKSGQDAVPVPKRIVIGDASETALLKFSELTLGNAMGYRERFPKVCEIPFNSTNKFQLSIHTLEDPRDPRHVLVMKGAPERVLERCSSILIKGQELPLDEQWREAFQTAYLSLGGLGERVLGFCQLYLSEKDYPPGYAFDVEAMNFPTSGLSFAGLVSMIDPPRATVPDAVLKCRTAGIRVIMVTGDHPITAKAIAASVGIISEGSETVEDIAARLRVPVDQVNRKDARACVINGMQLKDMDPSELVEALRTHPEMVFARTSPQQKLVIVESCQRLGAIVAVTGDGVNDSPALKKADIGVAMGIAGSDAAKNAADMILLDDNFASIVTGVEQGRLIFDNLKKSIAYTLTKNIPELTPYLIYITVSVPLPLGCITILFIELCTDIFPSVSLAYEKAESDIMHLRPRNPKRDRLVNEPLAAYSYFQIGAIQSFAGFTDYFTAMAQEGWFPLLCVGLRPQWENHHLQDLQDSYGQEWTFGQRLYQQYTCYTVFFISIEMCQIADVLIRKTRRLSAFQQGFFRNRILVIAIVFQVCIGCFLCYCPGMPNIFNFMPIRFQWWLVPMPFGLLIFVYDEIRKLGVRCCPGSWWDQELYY
Chain of Proton Pump (H^+/K^+-ATPase) (P18434 whole entry partner): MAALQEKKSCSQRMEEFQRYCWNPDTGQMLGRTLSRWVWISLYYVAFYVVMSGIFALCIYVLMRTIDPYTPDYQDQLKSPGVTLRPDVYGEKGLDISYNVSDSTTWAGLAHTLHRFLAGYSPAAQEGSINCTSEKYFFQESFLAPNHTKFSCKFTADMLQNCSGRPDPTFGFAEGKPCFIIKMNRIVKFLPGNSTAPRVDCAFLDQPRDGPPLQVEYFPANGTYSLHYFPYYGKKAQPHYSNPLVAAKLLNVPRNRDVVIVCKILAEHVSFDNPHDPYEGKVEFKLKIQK

Molecule	IC50 [µM]
Cc1c(C)n(Cc2ccccc2)c2c(N(C)Cc3ccc(F)cc3)nccc12 [Example 141, 1-benzyl-7-[N-(4-fluorobenzyl)-N-methyl]amino-2,3-dimethyl-1H-pyrrolo[2,3-c]pyridine hydrochloride]	0.064
Cc1c(C)n(CC(C)C)c2c(NCc3ccc(F)cc3)nccc12.Cl [Example 208, 7-(4-fluorobenzylamino)-1-isobutyl-2,3-dimethyl-1H-pyrrolo[2,3-c]pyridine hydrochloride]	0.094
Cc1ccccc1CNc1nccc2c(C)c(C)n(CC(C)C)c12.Cl [Example 210, 1-isobutyl-2,3-dimethyl-7-(2-methylbenzylamino)-1H-pyrrolo[2,3-c]pyridine hydrochloride]	0.054
CCCn1c(C)c(C)c2ccnc(NCc3ccc(Cl)cc3)c21.Cl [Example 229, 7-(4-chlorobenzylamino)-2,3-dimethyl-1-propyl-1H-pyrrolo[2,3-c]pyridine hydrochloride]	0.24
Cc1c(C)n(Cc2cccc(F)c2)c2c(N3CCc4ccccc4C3)nc(CNC3CC3)cc12 [Example 871, N-[7-(3,4-dihydro-1H-isoquinolin-2-yl)-1-(3-fluorobenzyl)-2,3-dimethyl-1H-pyrrolo[2,3-c]pyridin-5-ylmethyl]-cyclopropylamine hydrochloride]	0.037
Cc1c(C)n(Cc2cccc(F)c2)c2c(N3CCc4ccccc4C3)nc(CN3CCOCC3)cc12 [Example 872, 2-[1-(3-fluorobenzyl)-2,3-dimethyl-5-(morpholin-4-ylmethyl)-1H-pyrrolo[2,3-c]pyridin-7-yl]-1,2,3,4-tetrahydroisoquinoline hydrochloride]	0.043
Cc1c(C)n(Cc2cccc(F)c2)c2c(N3CCc4ccccc4C3)nc(CN3CCN(C)CC3)cc12 [Example 873, 2-[1-(3-fluorobenzyl)-2,3-dimethyl-5-(4-methylpiperazin-1-ylmethyl)-1H-pyrrolo[2,3-c]pyridin-7-yl]-1,2,3,4-tetrahydroisoquinoline hydrochloride]	0.026
Cc1c(C)n(Cc2cccc(Cl)c2)c2c(N3CCc4ccccc4C3)nc(CN3CCN(C)CC3)cc12 [Example 875, 2-[1-(3-chlorobenzyl)-2,3-dimethyl-5-(4-methylpiperazin-1-ylmethyl)-1H-pyrrolo[2,3-c]pyridin-7-yl]-1,2,3,4-tetrahydroisoquinoline hydrochloride]	0.258
COc1cccc(Cn2c(C)c(C)c3cc(CN4CCN(C)CC4)nc(N4CCc5ccccc5C4)c32)c1 [Example 876, 2-[1-(3-methoxybenzyl)-2,3-dimethyl-5-(4-methylpiperazin-1-ylmethyl)-1H-pyrrolo[2,3-c]pyridin-7-yl]-1,2,3,4-tetrahydroisoquinoline hydrochloride]	0.099
Cc1cccc(Cn2c(C)c(C)c3cc(CN4CCN(C)CC4)nc(N4CCc5ccccc5C4)c32)c1 [Example 878, 2-[2,3-dimethyl-1-(3-methylbenzyl)-5-(4-methylpiperazin-1-ylmethyl)-1H-pyrrolo[2,3-c]pyridin-7-yl]-1,2,3,4-tetrahydroisoquinoline hydrochloride]	0.152
C=CCn1c(C)c(C)c2cc(CN3CCN(C)CC3)nc(N3CCc4ccccc4C3)c21 [Example 879, 2-[1-allyl-2,3-dimethyl-5-(4-methylpiperazin-1-ylmethyl)-1H-pyrrolo[2,3-c]pyridin-7-yl]-1,2,3,4-tetrahydroisoquinoline hydrochloride]	0.05
Cc1c(C)n(Cc2ccccc2)c2c(N3CCc4ccccc4C3)nc(CN3CCN(C)CC3)cc12 [Example 883, 2-[1-benzyl-2,3-dimethyl-5-(4-methylpiperazin-1-ylmethyl)-1H-pyrrolo[2,3-c]pyridin-7-yl]-1,2,3,4-tetrahydroisoquinoline hydrochloride]	0.087
Cc1c(C)n(Cc2cccc(F)c2)c2c(N3CCc4ccccc4C3)nc(CC#N)cc12 [Example 884, [7-(3,4-dihydro-1H-isoquinolin-2-yl)-1-(3-fluorobenzyl)-2,3-dimethyl-1H-pyrrolo[2,3-c]pyridin-5-yl]-acetonitrile hydrochloride]	0.216
Cc1c(C)n(Cc2cccc(F)c2)c2c(N3CCc4ccccc4C3)nc(CF)cc12 [Example 885, 2-[1-(3-fluorobenzyl)-5-fluoromethyl-2,3-dimethyl-1H-pyrrolo[2,3-c]pyridin-7-yl]-1,2,3,4-tetrahydroisoquinoline hydrochloride]	0.217
Cc1c(C)n(Cc2ccccc2)c2c(NCc3ccc(F)cc3)nc(C(=O)N3CCN(C)CC3)cc12 [Example 906, [1-benzyl-7-(4-fluorobenzylamino)-2,3-dimethyl-1H-pyrrolo[2,3-c]pyridin-5-yl]-(4-methylpiperazin-1-yl)-methanone hydrochloride]	0.031
CCN1CCN(C(=O)c2cc3c(C)c(C)n(Cc4ccccc4)c3c(NCc3ccc(F)cc3)n2)CC1 [Example 907, [1-benzyl-7-(4-fluorobenzylamino)-2,3-dimethyl-1H-pyrrolo[2,3-c]pyridin-5-yl]-(4-ethylpiperazin-1-yl)-methanone hydrochloride]	0.032
Cc1c(C)n(Cc2ccccc2)c2c(NCc3ccc(F)cc3)nc(C(=O)N3CCCCC3)cc12 [Example 908, [1-benzyl-7-(4-fluorobenzylamino)-2,3-dimethyl-1H-pyrrolo[2,3-c]pyridin-5-yl]-(piperidin-1-yl)-methanone hydrochloride]	0.384
Cc1c(C)n(Cc2ccccc2)c2c(NCc3ccc(F)cc3)nc(C(=O)N3CCOCC3)cc12 [Example 909, [1-benzyl-7-(4-fluorobenzylamino)-2,3-dimethyl-1H-pyrrolo[2,3-c]pyridin-5-yl]-(morpholin-4-yl)-methanone hydrochloride]	0.09
Cc1[nH]c2c(NCc3ccc(F)cc3)nc(C#N)cc2c1C [Example 910, 7-(4-fluorobenzylamino)-2,3-dimethyl-1H-pyrrolo[2,3-c]pyridin-5-carbonitrile hydrochloride]	0.393
[1-allyl-7-(3,4-dihydro-1H-isoquinolin-2-yl)-2,3-dimethyl-1H-pyrrolo[2,3-c]pyridin-5-yl]-methylamine hydrochloride [Example 887]	0.009
[7-(3,4-dihydro-1H-isoquinolin-2-yl)-1-(3-fluorobenzyl)-2,3-dimethyl-1H-pyrrolo[2,3-c]pyridin-5-yl]-methylamine hydrochloride [Example 888]	0.02

The molecules below were run on basal gastric acid secretion (assay: Inhibitory effects on basal gastric acid secretion in pylorus-ligated rats (Shay's rat model)). Details: oral, one hour before pylorus ligation, total acid output 5 hours after ligation.
Format: in vivo, Sprague Dawley (SD) rats
Method: Inhibitory effects of the compounds of the present invention on basal gastric acid secretion were performed according to Shay's rat model (Shay, H., et al., 1945, gastroenterology, 5, 43-61). Male Sprague Dawley (SD) rats (200±10 g body weight) were divided into […] (n=5) and fasted for 24 hours with free access to water. Control group was orally administered with 0.5% methylcellulose alone and the other groups were orally administered with test compounds suspended in 0.5% methylcellulose solution at doses of 1, 3 and 10 mg/kg/5 ml one hour before pylorus ligation.
Under ether anesthesia, the abdomens of the rats were incised and then the pylorus was ligated. 5 hours after ligation, the animals were sacrificed, and the gastric contents were collected. The collected contents were centrifuged at 1,000×g for 10 minutes to obtain the gastric juice. Total acid output was measured by 0.01N NaOH volume (ueq/ml) for automatic titration of the gastric juice to pH 7.0 and the ED50s of test compounds were calculated using the Litchfield-Wilcoxon method. % inhibitory activity was calculated from the following equation and the results are shown in Table 2. % inhibitory activity of test compound=(total acid output of control group−total acid output of the group treated with test compounds)/total acid output of control group×100

Molecule	ED50 [mg/kg]
Cc1c(C)n(Cc2ccccc2)c2c(N(C)Cc3ccc(F)cc3)nccc12 [Example 141, 1-benzyl-7-[N-(4-fluorobenzyl)-N-methyl]amino-2,3-dimethyl-1H-pyrrolo[2,3-c]pyridine hydrochloride]	2.3
Cc1c(C)n(Cc2cccc(F)c2)c2c(NCc3ccc(F)cc3)nccc12.Cl [Example 207, 1-(3-fluorobenzyl)-7-(4-fluorobenzylamino)-2,3-dimethyl-1H-pyrrolo[2,3-c]pyridine hydrochloride]	8.3
Cc1c(C)n(CC(C)C)c2c(NCc3ccc(F)cc3)nccc12.Cl [Example 208, 7-(4-fluorobenzylamino)-1-isobutyl-2,3-dimethyl-1H-pyrrolo[2,3-c]pyridine hydrochloride]	1.3
Cc1ccccc1CNc1nccc2c(C)c(C)n(CC(C)C)c12.Cl [Example 210, 1-isobutyl-2,3-dimethyl-7-(2-methylbenzylamino)-1H-pyrrolo[2,3-c]pyridine hydrochloride]	1.9
Cc1c(C)n(Cc2ccc(F)cc2)c2c(NCc3ccc(Cl)cc3)nccc12.Cl [Example 218, 7-(4-chlorobenzylamino)-1-(4-fluorobenzyl)-2,3-dimethyl-1H-pyrrolo[2,3-c]pyridine hydrochloride]	4.1
CCCn1c(C)c(C)c2ccnc(NCc3ccc(Cl)cc3)c21.Cl [Example 229, 7-(4-chlorobenzylamino)-2,3-dimethyl-1-propyl-1H-pyrrolo[2,3-c]pyridine hydrochloride]	2.2
Cc1c(C)n(Cc2ccc(C(C)(C)C)cc2)c2c(N3CCc4ccccc4C3)nccc12.Cl [Example 507, 1-(4-tert-butylbenzyl)-7-(1,2,3,4-tetrahydroisoquinolin-2-yl)-2,3-dimethyl-1H-pyrrolo[2,3-c]pyridine hydrochloride]	3.1
